Source: patent publication US6440980B1, “Synergistic inhibition of viral replication by long-chain hydrocarbons and nucleoside analogs” (Avanir Pharmaceuticals, priority 1996, dated 2002)
Like-named read-outs stand apart in the source and are kept apart here.

Columns and labels:
[1] = tested on: HSV-2; assay: Topical treatment of HSV-2 in guinea pig model, number of vesicles (Example 9); type: in vivo, hairless guinea pigs; details: mean; for Number of Vesicles Day 2: 48 hr post-inoculation; for Number of Vesicles Day 3: 72 hr post-inoculation; for Number of Vesicles Day 4: 96 hr post-inoculation
[2] = tested on: vaccinia virus; assay: microbe, parasite or virus in culture; type: cell-based, vaccinia virus (WR strain); details: cultures that lacked PFA; 15 mM n-docosanol
[3] = tested on: HSV-1; assay: HSV-1 PFU production in Vero cell cultures; type: cell-based, HSV-1 (MacIntyre strain)
[4] = tested on: Cytomegalovirus (CMV); assay: CMV infectious center assay in MRC-5 cells; type: cell-based, human cytomegalovirus (Towne strain)
[5] = tested on: Vero cells; details: African green monkey, 9 mM
[6] = tested on: all cell lines tested; assay: Cytotoxicity in mammalian cell cultures; details: read-out: IC50 (cellular toxicity by chain length)
Source text: Three assays were used to quantitate the effects of aliphatic alcohols on cell survival and proliferation: 1) counting cells with a hemocytometer and determining the number of cells that exclude trypan blue; 2) measuring the incorporation of ^3H-thymidine into cellular DNA by adding ^3H-thymidine (from New England Nuclear) to the culture medium, lysing the cells with water and harvesting the DNA onto filter paper; and 3) measuring total cellular protein using a sulforhodamine assay adapted for use in 96-well microtiter plates (Skehan et al., J. Natl. Cancer Inst. […] All of these methods are well known cell viability and cytotoxicity assays.

[7] = tested on: HSV-2; assay: Inhibition of HSV-2 plaque formation in Vero cells
[8] = Inflammation or toxicity at treated skin sites (Example 15); details: 96 hours, alone or in combination
[9] = tested on: B cell hybridoma (MBI-9); assay: 3H-thymidine incorporation into DNA of B cell hybridoma; type: cell-based, murine; details: Mus musculus, 48 hr incubation, read-out: IC50 estimated by extrapolation
[10] = tested on: Fetal Foreskin Cells; assay: Cell viability by trypan blue exclusion, fetal foreskin cells; type: cell-based, human; details: for Fetal Foreskin Cells No. Viable: 9 mM n-docosanol in 1.4 mM surfactant (4:1 w:w), trypan blue exclusion; for Fetal Foreskin Cells % Control: 9 mM n-docosanol in 1.4 mM surfactant, control = media only
Protocol: Typical data are presented in Table 3, showing that the total number of viable Vero cells and foreskin fibroblasts was unchanged after 24 hr to 72 hr incubation with the aliphatic alcohol suspension.

[11] = tested on: Varicella Zoster Virus (VZV); assay: VZV infectious center assay in MRC-5 cells; type: cell-based, human varicella zoster virus (Ellen strain); details: for IC per Culture × 10^−4: no ACV, medium only 35
[12] = tested on: HSV-2; assay: Cutaneous HSV-2 model in hairless guinea pigs, combination cream (Example 15); type: in vivo
[13] = tested on: human foreskin fibroblasts; assay: Cell proliferation (cytostasis), sulforhodamine staining; type: cell-based; details: 1,000 cells/well, 96-hours incubation
Protocol: The effects of n-docosanol and n-docosane suspensions on cell proliferation (cytostasis) were quantitated using the sulforhodamine staining assay on cultures of human foreskin fibroblasts incubated in 96-well plates.
Foreskin fibroblasts were plated with or without aliphatic alcohol suspensions or control surfactant suspensions at 1,000 cells/well (FIG. 6A and FIG. 7) or at 30,000 cells/well (FIG. 6B) in 96 well plates. After incubation for 72 hr or 96 hr at 37° C., cells were precipitated with trichloroacetic acid, stained with sulforhodamine and quantitated by measuring the OD540 in a microtiter plate reader.

[14] = tested on: Early viral protein synthesis; details: Katz et al. 1991; cited from earlier work
[15] = male, hairless, guinea pig, in vivo, 2 day
[16] = Human betaherpesvirus 5, MRC5, read-out: % Inhibition of infected cells
[17] = Human alphaherpesvirus 2, Vero, read-out: Percent Inhibition of Plaque Formation

CCCCCCCCCCCCCCCCCCCCCCO [n-docosanol]
Number of Vesicles Day 2 ([1]; 10% w/w cream topically 3X/day from 24 hr post-inoculation): 40
Number of Vesicles Day 3 ([1]; 10% w/w cream topically 3X/day): 12
Number of Vesicles Day 4 ([1]; 10% w/w cream topically 3X/day): 3
Number of Vesicles Day 2 ([1]; 10% w/w cream topically 5X/day): 43
Number of Vesicles Day 3 ([1]; 10% w/w cream topically 5X/day): 5
Number of Vesicles Day 4 ([1]; 10% w/w cream topically 5X/day): 3
inhibition of vaccinia virus replication (in words) [2]: does not inhibit replication of vaccinia virus
fewer HSV-1 PFU than untreated cultures ([3]; 15 mM n-docosanol alone, three days post-infection): about 10 fold
inhibition at 3300 µM ([3]; Human alphaherpesvirus 1, Vero, read-out: inhibition of PFU production): 55%
inhibition at 3300 µM [4, 16]: 20%
inhibition at 10000 µM [4, 16]: 60%
inhibition at 30000 µM [4, 16]: 85%
EC50 ([4]; Human betaherpesvirus 5, MRC5, read-out: n-docosanol EC50 for inhibition of CMV replication, MRC-5 cells): ~10 mM
Vero Cells % Control ([5]; 24 h): 101%
Vero Cells No. Viable ([5]; 24 h): 7.48 × 10^5
Vero Cells % Control ([5]; 48 h): 137%
Vero Cells No. Viable ([5]; 48 h): 8.69 × 10^5
Vero Cells % Control ([5]; 72 h): 120%
Vero Cells No. Viable ([5]; 72 h): 8.61 × 10^5
IC50 [6]: > 15 mM
fewer plaques than untreated or PLURONIC F-68-treated controls ([7]; 3 mM n-docosanol, without ACV): 40%
EC50 ([7]; Human alphaherpesvirus 2, Vero, read-out: 50% Inhibition Concentration (mM)): 8.6 mM
EC50 ([7]; Human alphaherpesvirus 2, Vero, read-out: EC50 of plaque formation inhibition, octoxynol (TRITON X-100) suspension): ~4.5 mM
inhibition at 1000 µM [7, 17]: 14%
inhibition at 2000 µM [7, 17]: 40%
inhibition at 4000 µM [7, 17]: 36%
inhibition at 8000 µM [7, 17]: 44%
inhibition at 15000 µM [7, 17]: 66%
EC50 ([7]; Human alphaherpesvirus 2, Vero, read-out: amount of n-docosanol required for 50% inhibition of plaque production, after increasing the ratio of surfactant to n-docosanol): 3 mM
EC50 ([7]; Human alphaherpesvirus 2, Vero, read-out: amount of n-docosanol required for 50% inhibition of plaque production, before increasing the ratio of surfactant to n-docosanol): 15 mM
EC50 ([7]; Human alphaherpesvirus 2, Vero, read-out: effective concentration required to inhibit plaque formation by 50% (EC50), surfactant suspension, Example 5): 9 mM
EC50 ([7]; Human alphaherpesvirus 2, Vero, read-out: n-docosanol EC50, HSV-2 plaque formation, in conjunction with ACV in the range of 0.2-10 μM): 2 to 3 mM
EC50 ([7]; Human alphaherpesvirus 2, Vero, read-out: n-docosanol EC50, HSV-2 plaque formation, used alone): 2 to 3 mM
n-docosanol concentrations inhibiting plaque formation relative to octoxynol control ([7]; octoxynol (TRITON X-100) suspension): greater than or equal to 2 mM
induced inflammation or toxicity [8]: not detected
IC50 [9]: ~20 mM
Fetal Foreskin Cells No. Viable ([10]; 24 hr): 2.41 × 10^5
Fetal Foreskin Cells No. Viable ([10]; 48 hr): 2.78 × 10^5
Fetal Foreskin Cells No. Viable ([10]; 72 hr): 2.72 × 10^5
Fetal Foreskin Cells % Control ([10]; 24 hr): 131%
Fetal Foreskin Cells % Control ([10]; 48 hr): 118%
Fetal Foreskin Cells % Control ([10]; 72 hr): 118%
EC50 ([11]; Human alphaherpesvirus 3, MRC5, MRC-5 cells, read-out: n-docosanol EC50 for inhibition of VZV replication): ~10 mM
inhibition at 3300 µM ([11]; Human alphaherpesvirus 3, MRC5, VZV, n-Docosanol 3.3 mM, read-out: % Inhibition of infected cells): 40%
inhibition at 10000 µM ([11]; Human alphaherpesvirus 3, MRC5, VZV, n-Docosanol 10 mM, read-out: % Inhibition of infected cells): 57%
inhibition at 30000 µM ([11]; Human alphaherpesvirus 3, MRC5, VZV, n-Docosanol 30 mM, read-out: % Inhibition of infected cells): 80%
IC per Culture × 10^−4 ([11]; VZV, n-Docosanol 3.3 mM): 21 × 10^−4
IC per Culture × 10^−4 ([11]; VZV, n-Docosanol 10 mM): 15 × 10^−4
IC per Culture × 10^−4 ([11]; VZV, n-Docosanol 30 mM): 7 × 10^−4
reduction of mean vesicle numbers ([12]; 96 hours post-HSV-2-inoculation, cream two times daily, untreated mean 27 vesicles): 63%
mean AUC (mean number of vesicles times hours vesicles were observed) ([12]; cream two times daily, untreated 698): 464 vesicle hours
inhibition of AUC ([12]; vs untreated AUC 698 vesicle hours): 34%
n-docosanol concentration that inhibited proliferation of cells [13]: greater than 3 mM
inhibition of early viral protein synthesis [14]: more than 80%
Irritation Score Day 2 [15]: 0
